Assay results as given in patent publication US9132103B2, “Disinfecting agent comprising eugenol, terpineol and thymol” (Conopco, Inc., priority 2009, dated 2015).

System: E. coli ATCC 10536
Assay: Bacterial kill after 15 seconds of contact (viable E. coli count by neutralization, serial dilution and plating)
Format: cell-based
Conditions: log10 of viable E. coli remaining after 15 seconds of contact; about 10^7 cells; water carrier; Table 2
Protocol: About 10^7 bacterial cells (E. coli ATCC 10536) were taken in a test tube and contacted with various compositions for a period of 15 seconds. Bacteria were taken out after 15 seconds of contact and presence of viable cells was determined by neutralization of the antimicrobial, serial dilution and plating on agar plates. The data is presented in Table-1 as log (Viable E. Coli) which is the log10 of the number of viable E. coli remaining after 15 seconds of contact. Thus if 10^4 remained, log (Viable E. coli) is 4.
The data in Table-1 is an average result of four experiments.
Various compositions as shown in Table-2 were prepared using the same procedure as used for examples 1 to 3 and the antibacterial efficacy was evaluated using the same procedure as used to evaluate Examples 1 to 3. The data on antibacterial efficacy is represented in Table-2.
Compositions as summarized in Table-3 were prepared using a similar procedure as used for Examples 1 to 3 and the antibacterial efficacy was evaluated using a procedure similar to that used for Examples 1 to 3.
The various compositions were diluted with water in a ratio of composition:water of 1:400 and then tested for antibacterial efficacy. The procedure used was similar to that used for Examples 1 to 3.
Soap bar compositions were prepared as per conventional procedure for preparing milled and plodded soap bars. […]

| Molecule | Log (Viable E. coli) |
| --- | --- |
| Cc1ccc(C(C)C)c(O)c1 [Example 6, Thymol] | 6.5 |
| Terpineol [Example 7] | 6.5 |
